Assay results as given in US20250205257A1 (priority 2022, published 2025).

Columns and labels:
[1] = test system: recombinant ASFV genotype II Georgia virus, GeorgiaDMGFB; type: cell-based, African swine fever virus
[2] = test system: ASFV strain Georgia 2007/1; settings: pig, in vivo, po, 30 mg/kg
[3] = in vitro; settings: pig, CC50 (50% cytotoxic concentration)
[4] = test system: ASFV strain Georgia 2007/1; settings: pig, in vivo
[5] = test system: porcine kidney cells; settings: pig
[6] = test system: ASFV Georgia 2007/1; assay: microbe, parasite or virus in culture; type: cell-based; settings: African swine fever virus, PBMC, 72 h, read-out: EC50 Georgia 2007/1
[7] = pig, in vivo
[8] = in vivo; settings: pig
[9] = test system: ASFV BOT 1/99; assay: microbe, parasite or virus in culture; type: cell-based; settings: African swine fever virus, PBMC, 72 h, read-out: EC50 BOT P1/99
[10] = test system: ASFV Magadi w/hog 9; assay: microbe, parasite or virus in culture; type: cell-based; settings: African swine fever virus, PBMC, 72 h, read-out: EC50 Magadi w/hog 9
[11] = test system: ASFV KAB6/2; assay: microbe, parasite or virus in culture; type: cell-based; settings: African swine fever virus, PBMC, 72 h, read-out: EC50 KAB6/2

SMILES: CC(C)(C)C(=O)OCOP1(=O)CO[C@@H](Cn2ccc(N)nc2=O)CO1 (stereo partly drawn) [Compound 1, Pivaloyloxymethyl ester of cHPMPC]
- efficacy compared to cHPMPC [1]: intermediate

SMILES: CCCCCCCCCCCCCCCCCCOCCOP1(=O)CO[C@@H](Cn2ccc(N)nc2=O)CO1 (stereo partly drawn) [Compound 4, Octadecyloxyethyl ester of cHPMPC]
- efficacy compared to cHPMPC [1]: greatly increased efficacy
- selectivity indices [1]: thousands

SMILES: CC(C)OC(=O)[C@H](C)NP1(=O)CO[C@@H](Cn2ccc(N)nc2=O)CO1 (stereo partly drawn) [Compound 5, Isopropyl L-alaninyl cHPMPC]
- efficacy compared to cHPMPC [1]: intermediate

SMILES: CC(C)OC(=O)OCOP1(=O)CO[C@@H](Cn2ccc(N)nc2=O)CO1 (stereo partly drawn) [Compound 2, Isopropyloxycarbonyloxymethyl ester of cHPMPC]
- efficacy compared to cHPMPC [1]: intermediate

SMILES: Nc1ccn(C[C@H]2COP(=O)(O)CO2)c(=O)n1 [cHPMPC, cyclic cidofovir]
- ASF viraemia [2]: significantly reduced
- ASF viral genome copies in organs (lungs, spleens, lymph nodes) compared to placebo [2]: significantly reduced
- median survival / median day of death [2]: 8 days
- CC50 [3]: 47000 nM
- concentration above which mNeon Green expression was not observed [1]: > 0.05 µM
- pigs survived until the end of the study (day 27 post ASFV challenge) with no ASF disease [4]: 2 pigs
- ASFV genome copies in blood on termination days compared to control pigs ([4]; po, 30 mg/kg): reduced
- ASFV genome copies in swab samples on termination days compared to control pigs ([4]; po, 30 mg/kg): reduced
- median survival ([4]; po, 30 mg/kg): 19.5 days
- pigs euthanized at moderate severity humane endpoint on day 6 showing reduced ASF disease ([4]; po, 30 mg/kg): 2 pigs
- pigs euthanized at moderate severity humane endpoint on day 19 and day 20 with delayed and reduced ASF disease ([4]; po, 30 mg/kg): 2 pigs
- CC50 [5]: 59000 nM
- EC50 [6]: 310 ± 170 nM
- other adverse events [7]: No other adverse events were recorded
- tolerability [7]: well tolerated
- injection site observation 1 hour post intravenous dosing ([7]; iv, 5 mg/kg): redness at injection site was observed in all pigs
- injection site observation 4 hour post intravenous administration ([7]; iv, 5 mg/kg): no injection site reactions were observed
- half-life ([8]; iv, 5 mg/kg): 3.31 h
- AUC ([8]; iv, 5 mg/kg, AUC, analyte VV03-0035): 71.6 µM·h
- AUC ([8]; iv, 5 mg/kg, exposure (AUC) of VV03-0035, range across pigs): 58 to 95.4 µM·h
- half-life ([8]; po, 25 mg/kg): 3.51 h
- AUC ([8]; po, 25 mg/kg, AUC, analyte VV03-0035): 11.6 µM·h
- AUC ([8]; po, 25 mg/kg, exposure (AUC) of VV03-0035, range across pigs): 2.32 to 23.7 µM·h
- EC50 [9]: 300 ± 200 nM
- EC50 [10]: 110 ± 50 nM
- EC50 [11]: 590 ± 80 nM

SMILES: CCCCCCCCCCCCCCCCOCCCOP1(=O)CO[C@@H](Cn2ccc(N)nc2=O)CO1 (stereo partly drawn) [Compound 3, Hexadecyloxypropyl ester of cHPMPC]
- efficacy compared to cHPMPC [1]: greatly increased efficacy
- selectivity indices [1]: thousands
